The record followed here is ChEMBL document CHEMBL4699453, “Correlations between functional porphyrin positions and accumulation in cancer cells” (Bioorg Med Chem Lett, 2020).

Data set [1] concerns the target T1, Albumin (Bos taurus, UniProt P02769). In words: Binding affinity to bovine serum albumin assessed as Stem-Volmer quenching constant by fluorescence based Stern-Volmer plot analysis. Particulars: cattle.
A short description of data set [2]: Drug uptake in human MCF7 cells at 10 uM incubated for 24 hrs by fluorescence based assay. Type of data set: ADME, cell-based. As to conditions: mcf7, 24 h.
Data set [3] has as its target T1, Albumin. In words: Binding affinity to bovine serum albumin assessed as binding constant by fluorescence based Stern-Volmer plot analysis. As to conditions: cattle.
A short description of data set [4]: Drug uptake in human MCF7 cells at 10 uM incubated for 2 hrs by fluorescence based assay. It counts as ADME, cell-based. As to conditions: mcf7, 2 h.

T1 sequence (P02769 whole entry): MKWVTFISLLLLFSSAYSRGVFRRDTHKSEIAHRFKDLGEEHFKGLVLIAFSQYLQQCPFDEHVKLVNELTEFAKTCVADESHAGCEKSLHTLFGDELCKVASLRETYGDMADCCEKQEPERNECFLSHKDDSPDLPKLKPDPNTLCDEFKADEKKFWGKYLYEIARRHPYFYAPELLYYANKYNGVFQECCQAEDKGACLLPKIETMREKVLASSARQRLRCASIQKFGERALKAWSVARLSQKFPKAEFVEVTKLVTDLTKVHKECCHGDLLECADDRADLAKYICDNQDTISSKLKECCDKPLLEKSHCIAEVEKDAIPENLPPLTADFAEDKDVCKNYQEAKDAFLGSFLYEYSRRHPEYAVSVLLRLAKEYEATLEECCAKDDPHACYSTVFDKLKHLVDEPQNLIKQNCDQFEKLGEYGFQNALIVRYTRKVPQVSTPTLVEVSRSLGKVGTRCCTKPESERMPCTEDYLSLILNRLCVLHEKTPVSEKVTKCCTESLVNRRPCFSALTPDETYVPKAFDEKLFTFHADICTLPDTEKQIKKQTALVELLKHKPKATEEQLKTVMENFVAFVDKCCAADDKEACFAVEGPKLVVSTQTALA

For the compound `CC(=O)Nc1ccc(-c2c3nc(c(-c4ccccc4)c4ccc([nH]4)c(-c4ccccc4)c4nc(c(-c5ccccc5)c5ccc2[nH]5)C=C4)C=C3)cc1`, on Albumin [1], the KSV is 4.96 10^4L/mol. Also, the Drug uptake in data set [2] and in data set [4] was 5.8 10^-2microM throughout. For the same compound, the Ka at Albumin [3] is on record as 3.84 10^4L/mol.

Turning to `CC(=O)NC1=Cc2nc1c(-c1ccccc1)c1ccc([nH]1)c(-c1ccccc1)c1nc(c(-c3ccccc3)c3ccc([nH]3)c2-c2ccccc2)C=C1`, the KSV on Albumin [1] is 4.33 10^4L/mol. Besides, the Drug uptake in data set [2] is 4.3 10^-2microM; in data set [4] it was 3.3 10^-2microM. On Albumin [3], the Ka is reported as 2.86 10^4L/mol.

With `CCCCCCCCCCCCCCCC(=O)Nc1ccc(-c2c3nc(c(-c4ccccc4)c4ccc([nH]4)c(-c4ccccc4)c4nc(c(-c5ccccc5)c5ccc2[nH]5)C=C4)C=C3)cc1`, the KSV on Albumin [1] was 4.09 10^4L/mol. The Drug uptake is listed as 4.4 10^-2microM in data set [2] and 3 10^-2microM in data set [4]. Further, the Ka on Albumin [3] is given as 3.12 10^4L/mol.

`CCCCCCCCCCCCCCCC(=O)NC1=Cc2nc1c(-c1ccccc1)c1ccc([nH]1)c(-c1ccccc1)c1nc(c(-c3ccccc3)c3ccc([nH]3)c2-c2ccccc2)C=C1`: the KSV on Albumin [1] is 3.03 10^4L/mol. For the same compound, the Drug uptake in data set [2] and in data set [4] was 1.7 10^-2microM throughout. The Ka on Albumin [3] is on record as 1.98 10^4L/mol.
